From article PMC7470115, “Design, synthesis and biological evaluation of novel tetrahydrothieno [2,3-c]pyridine substitued benzoyl thiourea derivatives as PAK1 inhibitors in triple negative breast cancer” (Journal of Enzyme Inhibition and Medicinal Chemistry, 2020)

The molecules below were run against PAK1 (Homo sapiens, UniProt Q13153) (assay: PAK1 enzymatic assay (Kinase-Glo Plus / ADP-Glo luminescence)). Details: tested in triplicate, mean ± SD; 50 µM ATP; read-out: Kinase inhibitory activity (IC50, μM) PAK1.
Format: biochemical
Method: These assays were carried out as described previously. All of the enzymatic reactions were conducted at 30 °C for 40 min. The 50 µl reaction mixture contains 40 mM Tris, pH 7.4, 10 mM MgCl2, 0.1 mg/ml BSA, 1 mM DTT, 50 µM ATP, 0.2 μg/ml PAK1 and 100 uM lipid substrate. The compounds were diluted in 10% DMSO and 5 µl of the dilution was added to a 50 µl reaction so that the final concentration of DMSO is 1% in all of the reactions. The assay was performed using the Kinase-Glo Plus luminescence kinase assay kit and ADP-Glo Plus luminescence kinase assay kit. It measures kinase activity by quantitating the amount of ATP remaining in solution following a kinase reaction. The luminescent signal from the assay is correlated with the amount of ATP present and is inversely correlated with the amount of kinase activity. The IC50 values were calculated using nonlinear regression with normalised dose − response fit using Prism GraphPad software.

PAK1, sequence (Q13153 whole entry): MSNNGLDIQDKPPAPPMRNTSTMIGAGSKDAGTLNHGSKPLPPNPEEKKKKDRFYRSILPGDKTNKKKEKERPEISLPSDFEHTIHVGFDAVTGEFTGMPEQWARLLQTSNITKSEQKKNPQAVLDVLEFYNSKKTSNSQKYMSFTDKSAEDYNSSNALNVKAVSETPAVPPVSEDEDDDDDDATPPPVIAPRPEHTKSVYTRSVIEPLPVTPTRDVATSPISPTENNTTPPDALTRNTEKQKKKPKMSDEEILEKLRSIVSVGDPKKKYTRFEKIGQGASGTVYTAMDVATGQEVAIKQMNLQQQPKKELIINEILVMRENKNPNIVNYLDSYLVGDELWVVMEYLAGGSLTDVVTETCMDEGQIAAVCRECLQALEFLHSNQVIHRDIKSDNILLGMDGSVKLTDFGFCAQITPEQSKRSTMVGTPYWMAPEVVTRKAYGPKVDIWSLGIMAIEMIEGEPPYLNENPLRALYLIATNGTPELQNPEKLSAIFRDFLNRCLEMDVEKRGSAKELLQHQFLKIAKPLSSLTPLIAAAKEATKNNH

| SMILES | IC50 |
| --- | --- |
| CC(C)(C)OC(=O)N1CCc2c(sc(NC(=S)NC(=O)c3ccccc3)c2C(N)=O)C1 [Compound 5a, Tert-butyl-2–(3-benzoylthioureido)-3-carbamoyl-4,7-dihydrothieno[2,3-c]pyridine-6(5H)-carboxylate] | 7.64 ± 0.72 µM |
| Cc1ccc(C(=O)NC(=S)Nc2sc3c(c2C(N)=O)CCN(C(=O)OC(C)(C)C)C3)cc1 [Compound 5b, Tert-butyl-3-carbamoyl-2–(3-(4-methylbenzoyl)thioureido)-4,7-dihydrothieno[2,3-c]pyridine-6(5H)-carboxylate] | 7.28 ± 0.78 µM |
| Cc1ccccc1C(=O)NC(=S)Nc1sc2c(c1C(N)=O)CCN(C(=O)OC(C)(C)C)C2 [Compound 5c, Tert-butyl-3-carbamoyl-2–(3-(2-methylbenzoyl)thioureido)-4,7-dihydrothieno[2,3-c]pyridine-6(5H)-carboxylate] | 6.21 ± 0.69 µM |
| Cc1cccc(C(=O)NC(=S)Nc2sc3c(c2C(N)=O)CCN(C(=O)OC(C)(C)C)C3)c1 [Compound 5d, Tert-butyl-3-carbamoyl-2–(3-(3-methylbenzoyl)thioureido)-4,7-dihydrothieno[2,3-c]pyridine-6(5H)-carboxylate] | 4.32 ± 0.51 µM |
| Cc1cc(C)c(C(=O)NC(=S)Nc2sc3c(c2C(N)=O)CCN(C(=O)OC(C)(C)C)C3)c(C)c1 [Compound 5e, Tert-butyl-3-carbamoyl-2–(3-(2,4,6-trimethylbenzoyl)thioureido)-4,7-dihydrothieno[2,3-c]pyridine-6(5H)-carboxylate] | 11.2 ± 1.01 µM |
| COc1ccc(C(=O)NC(=S)Nc2sc3c(c2C(N)=O)CCN(C(=O)OC(C)(C)C)C3)cc1 [Compound 5f, Tert-butyl-3-carbamoyl-2–(3-(4-methoxybenzoyl)thioureido)-4,7-dihydrothieno[2,3-c]pyridine-6(5H)-carboxylate] | 16.4 ± 1.78 µM |
| CC(C)(C)OC(=O)N1CCc2c(sc(NC(=S)NC(=O)c3ccc(Br)cc3)c2C(N)=O)C1 [Compound 5g, Tert-butyl-2–(3-(4-bromobenzoyl)thioureido)-3-carbamoyl-4,7-dihydrothieno[2,3-c]pyridine-6(5H)-carboxylate] | 9.35 ± 0.97 µM |
| CC(C)(C)OC(=O)N1CCc2c(sc(NC(=S)NC(=O)c3ccc(F)cc3)c2C(N)=O)C1 [Compound 5h, Tert-butyl-3-carbamoyl-2–(3-(4-fluorobenzoyl)thioureido)-4,7-dihydrothieno[2,3-c]pyridine-6(5H)-carboxylate] | 5.33 ± 0.65 µM |
| CC(C)(C)OC(=O)N1CCc2c(sc(NC(=S)NC(=O)c3ccccc3F)c2C(N)=O)C1 [Compound 5i, Tert-butyl-3-carbamoyl-2–(3-(2-fluorobenzoyl)thioureido)-4,7-dihydrothieno[2,3-c]pyridine-6(5H)-carboxylate] | 7.82 ± 0.71 µM |
| CC(C)(C)OC(=O)N1CCc2c(sc(NC(=S)NC(=O)c3ccc(Cl)cc3)c2C(N)=O)C1 [Compound 5j, Tert-butyl-3-carbamoyl-2–(3-(4-chlorobenzoyl)thioureido)-4,7-dihydrothieno[2,3-c]pyridine-6(5H)-carboxylate] | 9.12 ± 0.95 µM |
| CC(C)(C)OC(=O)N1CCc2c(sc(NC(=S)NC(=O)c3ccccc3Cl)c2C(N)=O)C1 [Compound 5k, Tert-butyl-3-carbamoyl-2–(3-(2-chlorobenzoyl)thioureido)-4,7-dihydrothieno[2,3-c]pyridine-6(5H)-carboxylate] | 8.65 ± 0.93 µM |
| CC(C)(C)OC(=O)N1CCc2c(sc(NC(=S)NC(=O)c3cccc(Cl)c3)c2C(N)=O)C1 [Compound 5l, Tert-butyl-3-carbamoyl-2–(3-(3-chlorobenzoyl)thioureido)-4,7-dihydrothieno[2,3-c]pyridine-6(5H)-carboxylate] | 5.15 ± 0.54 µM |
| CC(C)(C)OC(=O)N1CCc2c(sc(NC(=S)NC(=O)c3cccc(C(F)(F)F)c3)c2C(N)=O)C1 [Compound 5m, Tert-butyl-3-carbamoyl-2–(3-(3-(trifluoromethyl)benzoyl)thioureido)-4,7-dihydrothieno[2,3-c]pyridine-6(5H)-carboxylate] | 2.02 ± 0.27 µM |
